Data: patent publication US20200270309A1, “MALEIMIDE GROUP-MODIFIED ANGIOGENESIS INHIBITOR HM-1 AND USE THEREOF” (NANJING ANJI BIOLOGICAL TECHNOLOGY CO., LTD, priority 2017, published 2020)
Where two headings read alike, the source gives them in different places. Blank lines part the entries; values can stand above or below the compound they belong to. Peptide text beside a SMILES is read from it. * marks the point of attachment. Hexanoyl(6-maleimido) = O=C1C=CC(=O)N1CCCCCC(=O)*; Butanoyl(4-maleimido) = O=C1C=CC(=O)N1CCCC(=O)*; Propanoyl(3-maleimido) = O=C1C=CC(=O)N1CCC(=O)*; Maleimidoacetyl = O=C1C=CC(=O)N1CC(=O)*; X57 = O=C1C=CC(=O)N1CCCCCCCC(=O)*; X83 = O=C1C=CC(=O)N1CCCCCCC(=O)*; X45 = O=C1C=CC(=O)N1CCCCC(=O)*

Experiment: Half-lives and pharmacokinetic parameters of polypeptides vs HM-1
Details: in vivo
[1] = read-out: T1/2β (half-life) (converted)

Structure (SMILES): C[C@H](NC(=O)CNC(=O)[C@H](CCCNC(=N)N)NC(=O)CCCCCN1C(=O)C=CC1=O)C(=O)N[C@@H](CC(=O)O)C(=O)N[C@@H](CCCNC(=N)N)C(=O)N[C@@H](C)C(=O)N[C@@H](CCC(=O)O)C(=O)N[C@@H](C)C(=O)N[C@@H](C)C(=O)N[C@@H](C)C(=O)N[C@@H](CCCCN)C(=O)N[C@@H](CCCNC(=N)N)C(=O)NCC(=O)N[C@@H](CC(=O)O)C(=O)O [P12] ({Hexanoyl(6-maleimido)}-RGADRAEAAAKRGD-OH; C-terminus assumed)
AUC(0-inf) (read-out: AUC0-∞): 34000 ± 6880 ng·h/mL | clearance (read-out: CL (converted)): 0.49 mL/min/kg | MRT inf (read-out: MRT0-∞): 61 ± 10.1 h | half-life [1]: 42.24 ± 0.29 h

Structure (SMILES): C[C@H](NC(=O)CNC(=O)[C@H](CCCNC(=N)N)NC(=O)CCN1C(=O)C=CC1=O)C(=O)N[C@@H](CC(=O)O)C(=O)N[C@@H](CCCNC(=N)N)C(=O)N[C@@H](C)C(=O)NCC(=O)N[C@@H](CO)C(=O)N[C@@H](CO)C(=O)N[C@@H](CO)C(=O)N[C@@H](CO)C(=O)N[C@@H](CCCNC(=N)N)C(=O)NCC(=O)N[C@@H](CC(=O)O)C(=O)O [P13] ({Propanoyl(3-maleimido)}-RGADRAGSSSSRGD-OH; C-terminus assumed)
AUC(0-inf) (read-out: AUC0-∞): 31800 ± 8090 ng·h/mL | clearance (read-out: CL (converted)): 0.525 mL/min/kg | MRT inf (read-out: MRT0-∞): 56.9 ± 14.2 h | half-life [1]: 3944 ± 0.27 h

Structure (SMILES): C[C@H](NC(=O)CNC(=O)[C@H](CCCNC(=N)N)NC(=O)CCCCCN1C(=O)C=CC1=O)C(=O)N[C@@H](CC(=O)O)C(=O)N[C@@H](CCCNC(=N)N)C(=O)N[C@@H](C)C(=O)NCC(=O)N[C@@H](CO)C(=O)N[C@@H](CO)C(=O)N[C@@H](CO)C(=O)N[C@@H](CO)C(=O)N[C@@H](CCCNC(=N)N)C(=O)NCC(=O)N[C@@H](CC(=O)O)C(=O)O [P14] ({Hexanoyl(6-maleimido)}-RGADRAGSSSSRGD-OH; C-terminus assumed)
AUC(0-inf) (read-out: AUC0-∞): 32200 ± 7560 ng·h/mL | clearance (read-out: CL (converted)): 0.518 mL/min/kg | MRT inf (read-out: MRT0-∞): 57.5 ± 9.63 h | half-life [1]: 39.85 ± 0.31 h

Continued, values first:

AUC(0-inf) (read-out: AUC0-∞): 29000 ± 6940 ng·h/mL | clearance (read-out: CL (converted)): 0.575 mL/min/kg | MRT inf (read-out: MRT0-∞): 51.9 ± 10.2 h | half-life [1]: 35.99 ± 0.29 h
Structure (SMILES): C[C@H](NC(=O)CNC(=O)[C@H](CCCNC(=N)N)NC(=O)CN1C(=O)C=CC1=O)C(=O)N[C@@H](CC(=O)O)C(=O)N[C@@H](CCCNC(=N)N)C(=O)N[C@@H](C)C(=O)NCC(=O)NCC(=O)NCC(=O)NCC(=O)N[C@@H](CCCNC(=N)N)C(=O)NCC(=O)N[C@@H](CC(=O)O)C(=O)O [X1] (Maleimidoacetyl-RGADRAGGGGRGD-OH)

AUC(0-inf) (read-out: AUC0-∞): 27800 ± 7510 ng·h/mL | clearance (read-out: CL (converted)): 0.6 mL/min/kg | MRT inf (read-out: MRT0-∞): 49.8 ± 9.73 h | half-life [1]: 34.51 ± 0.28 h
Structure (SMILES): C[C@H](NC(=O)CNC(=O)[C@H](CCCNC(=N)N)NC(=O)CCN1C(=O)C=CC1=O)C(=O)N[C@@H](CC(=O)O)C(=O)N[C@@H](CCCNC(=N)N)C(=O)N[C@@H](C)C(=O)NCC(=O)NCC(=O)NCC(=O)NCC(=O)N[C@@H](CCCNC(=N)N)C(=O)NCC(=O)N[C@@H](CC(=O)O)C(=O)O [X2] ({Propanoyl(3-maleimido)}-RGADRAGGGGRGD-OH)

AUC(0-inf) (read-out: AUC0-∞): 33800 ± 7660 ng·h/mL | clearance (read-out: CL (converted)): 0.493 mL/min/kg | MRT inf (read-out: MRT0-∞): 60.5 ± 13.2 h | half-life [1]: 41.92 ± 0.32 h
Structure (SMILES): C[C@H](NC(=O)CNC(=O)[C@H](CCCNC(=N)N)NC(=O)CCCN1C(=O)C=CC1=O)C(=O)N[C@@H](CC(=O)O)C(=O)N[C@@H](CCCNC(=N)N)C(=O)N[C@@H](C)C(=O)NCC(=O)NCC(=O)NCC(=O)NCC(=O)N[C@@H](CCCNC(=N)N)C(=O)NCC(=O)N[C@@H](CC(=O)O)C(=O)O [X3] ({Butanoyl(4-maleimido)}-RGADRAGGGGRGD-OH)

AUC(0-inf) (read-out: AUC0-∞): 30100 ± 7330 ng·h/mL | clearance (read-out: CL (converted)): 0.553 mL/min/kg | MRT inf (read-out: MRT0-∞): 54 ± 10.5 h | half-life [1]: 37.44 ± 0.27 h
Structure (SMILES): C[C@H](NC(=O)CNC(=O)[C@H](CCCNC(=N)N)NC(=O)CCCCN1C(=O)C=CC1=O)C(=O)N[C@@H](CC(=O)O)C(=O)N[C@@H](CCCNC(=N)N)C(=O)N[C@@H](C)C(=O)NCC(=O)NCC(=O)NCC(=O)NCC(=O)N[C@@H](CCCNC(=N)N)C(=O)NCC(=O)N[C@@H](CC(=O)O)C(=O)O [X4] (X45-RGADRAGGGGRGD-OH)

AUC(0-inf) (read-out: AUC0-∞): 27900 ± 7030 ng·h/mL | clearance (read-out: CL (converted)): 0.598 mL/min/kg | MRT inf (read-out: MRT0-∞): 49.9 ± 13.2 h | half-life [1]: 34.59 ± 0.29 h
Structure (SMILES): C[C@H](NC(=O)CNC(=O)[C@H](CCCNC(=N)N)NC(=O)CCCCCN1C(=O)C=CC1=O)C(=O)N[C@@H](CC(=O)O)C(=O)N[C@@H](CCCNC(=N)N)C(=O)N[C@@H](C)C(=O)NCC(=O)NCC(=O)NCC(=O)NCC(=O)N[C@@H](CCCNC(=N)N)C(=O)NCC(=O)N[C@@H](CC(=O)O)C(=O)O [X5] ({Hexanoyl(6-maleimido)}-RGADRAGGGGRGD-OH)

AUC(0-inf): 30500 ± 7170 ng·h/mL | MRT inf: 54.6 ± 12.2 h | clearance: 0.547 mL/min/kg | half-life (T1/2β (half-life)): 37.86 ± 0.28 h
Structure (SMILES): C[C@H](NC(=O)CNC(=O)[C@H](CCCNC(=N)N)NC(=O)CCCCCCN1C(=O)C=CC1=O)C(=O)N[C@@H](CC(=O)O)C(=O)N[C@@H](CCCNC(=N)N)C(=O)N[C@@H](C)C(=O)NCC(=O)NCC(=O)NCC(=O)NCC(=O)N[C@@H](CCCNC(=N)N)C(=O)NCC(=O)N[C@@H](CC(=O)O)C(=O)O [X6] (X83-RGADRAGGGGRGD-OH)

AUC(0-inf): 34500 ± 6960 ng·h/mL | MRT inf: 61.8 ± 14.3 h | clearance: 0.485 mL/min/kg | half-life (T1/2β (half-life)): 42.83 ± 0.29 h
Structure (SMILES): C[C@H](NC(=O)CNC(=O)[C@H](CCCNC(=N)N)NC(=O)CCCCCCCN1C(=O)C=CC1=O)C(=O)N[C@@H](CC(=O)O)C(=O)N[C@@H](CCCNC(=N)N)C(=O)N[C@@H](C)C(=O)NCC(=O)NCC(=O)NCC(=O)NCC(=O)N[C@@H](CCCNC(=N)N)C(=O)NCC(=O)N[C@@H](CC(=O)O)C(=O)O [X7] (X57-RGADRAGGGGRGD-OH)
